Values after ≈ are worked out from the molar mass of the structure shown.
How the values were obtained:
Assay type in all cases: functional
Klebsiella pneumoniae [1] = assay: Antibacterial activity against Klebsiella pneumoniae Kp1239 transconjugant harboring IncL/M plasmid and blaIMP-4-qacG2-aacA4-catB3 array by Etest method
Klebsiella pneumoniae [2] = assay: Antibacterial activity against Klebsiella pneumoniae Kp2730 transconjugant harboring IncL/M plasmid and blaIMP-4-qacG2-aacA4-catB3 and dfrA12-orfF-aadA2 arrays by Etest method
Citrobacter amalonaticus [3] = assay: Antibacterial activity against Citrobacter amalonaticus Ca3927 transconjugant harboring IncL/M plasmid and blaIMP-4-qacG2-aacA4-catB3 array by Etest method
Enterobacter cloacae [4] = assay: Antibacterial activity against Enterobacter cloacae El1573 transconjugant harboring IncL/M plasmid and blaIMP-4-qacG2-aacA4-catB3 array by Etest method
Citrobacter amalonaticus [5] = assay: Antibacterial activity against Citrobacter amalonaticus Ca38009 transconjugant harboring IncL/M plasmid and blaIMP-4-qacG2-aacA4-catB3 array by Etest method
Klebsiella pneumoniae [6] = assay: Antibacterial activity against Klebsiella pneumoniae Kp38045 transconjugant harboring IncL/M plasmid and blaIMP-4-qacG2-aacA4-catB3 array by Etest method
Escherichia coli [7] = assay: Antibacterial activity against Escherichia coli Ec9381 transconjugant harboring IncL/M plasmid and blaIMP-4-qacG2-aacA4-catB3 array by Etest method
Morganella morganii [8] = assay: Antibacterial activity against Morganella morganii Mm1229 transconjugant harboring IncL/M plasmid and blaIMP-4-qacG2-aacA4-catB3 array by Etest method
Enterobacter cloacae [9] = assay: Antibacterial activity against Enterobacter cloacae El3799 transconjugant harboring IncL/M plasmid and blaIMP-4-qacG2-aacA4-catB3 array by Etest method
Klebsiella oxytoca [10] = assay: Antibacterial activity against Klebsiella oxytoca Ko0426 transconjugant harboring IncL/M plasmid and blaIMP-4-qacG2-aacA4-catB3 array by Etest method
Klebsiella oxytoca [11] = assay: Antibacterial activity against Klebsiella oxytoca Ko1156 transconjugant harboring IncL/M plasmid and blaIMP-4-qacG2-aacA4-catB3 array by Etest method
Escherichia coli [12] = assay: Antibacterial activity against Escherichia coli Ec158 transconjugant harboring IncA/C plasmid and blaIMP-4-qacG2-aacA4-catB3 array by Etest method
Citrobacter koseri = assay: Antibacterial activity against Citrobacter koseri Ck211 transconjugant harboring IncA/C plasmid and blaIMP-4-qacG2-aacA4-catB3 array by Etest method
Escherichia coli [13] = assay: Antibacterial activity against Escherichia coli Ec221 transconjugant harboring IncA/C plasmid and blaIMP-4-qacG2-aacA4-catB3 array by Etest method
Citrobacter youngae = assay: Antibacterial activity against Citrobacter youngae CyB38 transconjugant harboring blaIMP-4-qacG2-aacA4-catB3 array by Etest method
Klebsiella pneumoniae [14] = assay: Antibacterial activity against Klebsiella pneumoniae isolate Kp1239 harboring IncL/M plasmid and blaIMP-4-qacG2-aacA4-catB3 array by Etest method
Klebsiella pneumoniae [15] = assay: Antibacterial activity against Klebsiella pneumoniae isolate Kp2730 harboring IncL/M plasmid and blaIMP-4-qacG2-aacA4-catB3 and dfrA12-orfF-aadA2 arrays by Etest method
Enterobacter cloacae [16] = assay: Antibacterial activity against Enterobacter cloacae isolate El3280 harboring IncL/M plasmid and blaIMP-4-qacG2-aacA4-catB3 array by Etest method
Citrobacter amalonaticus [17] = assay: Antibacterial activity against Citrobacter amalonaticus isolate Ca3927 harboring IncL/M plasmid and blaIMP-4-qacG2-aacA4-catB3 array by Etest method
Enterobacter cloacae [18] = assay: Antibacterial activity against Enterobacter cloacae isolate El1573 harboring IncL/M plasmid and blaIMP-4-qacG2-aacA4-catB3 array by Etest method
Serratia marcescens [19] = assay: Antibacterial activity against Serratia marcescens isolate Sm2723 harboring IncL/M plasmid and blaIMP-4-qacG2-aacA4-catB3 array by Etest method
Klebsiella pneumoniae [20] = assay: Antibacterial activity against Klebsiella pneumoniae isolate Kp7564 harboring IncL/M plasmid and blaIMP-4-qacG2-aacA4-catB3 array by Etest method
Citrobacter amalonaticus [21] = assay: Antibacterial activity against Citrobacter amalonaticus isolate Ca38009 harboring IncL/M plasmid and blaIMP-4-qacG2-aacA4-catB3 array by Etest method
Klebsiella pneumoniae [22] = assay: Antibacterial activity against Klebsiella pneumoniae isolate Kp38009 harboring IncL/M plasmid and blaIMP-4-qacG2-aacA4-catB3 array by Etest method
Morganella morganii [23] = assay: Antibacterial activity against Morganella morganii isolate Mm1229 harboring IncL/M plasmid and blaIMP-4-qacG2-aacA4-catB3 array by Etest method
Enterobacter cloacae [24] = assay: Antibacterial activity against Enterobacter cloacae isolate El3799 harboring IncL/M plasmid and blaIMP-4-qacG2-aacA4-catB3 array by Etest method
Klebsiella oxytoca [25] = assay: Antibacterial activity against Klebsiella oxytoca isolate Ko0426 harboring IncL/M plasmid and blaIMP-4-qacG2-aacA4-catB3 array by Etest method
Klebsiella oxytoca [26] = assay: Antibacterial activity against Klebsiella oxytoca isolate Ko1156 harboring IncL/M plasmid and blaIMP-4-qacG2-aacA4-catB3 array by Etest method
Citrobacter amalonaticus [27] = assay: Antibacterial activity against Citrobacter amalonaticus isolate Ca1614 harboring IncL/M plasmid and blaIMP-4-qacG2-aacA4-catB3 array by Etest method
Citrobacter freundii = assay: Antibacterial activity against Citrobacter freundii isolate Cf1614 harboring IncL/M plasmid and blaIMP-4-qacG2-aacA4-catB3 array by Etest method
Morganella morganii [28] = assay: Antibacterial activity against Morganella morganii isolate Mm1614 harboring IncL/M plasmid and blaIMP-4-qacG2-aacA4-catB3 array by Etest method
Klebsiella pneumoniae [29] = assay: Antibacterial activity against Klebsiella pneumoniae isolate Kp149 harboring IncA/C plasmid and blaIMP-4-qacG2-aacA4-catB3 array by Etest method
Serratia marcescens [30] = assay: Antibacterial activity against Serratia marcescens isolate Sm201 harboring IncA/C plasmid and blaIMP-4-qacG2-aacA4-catB3 array by Etest method
Klebsiella pneumoniae [31] = assay: Antibacterial activity against Klebsiella pneumoniae isolate Kp211 harboring IncA/C plasmid and blaIMP-4-qacG2-aacA4-catB3 array by Etest method
Escherichia coli [32] = assay: Antibacterial activity against Escherichia coli isolate Ec211 harboring IncA/C plasmid and blaIMP-4-qacG2-aacA4-catB3 array by Etest method
Klebsiella pneumoniae [33] = assay: Antibacterial activity against Klebsiella pneumoniae isolate Kp266 harboring IncA/C plasmid and blaIMP-4-qacG2-aacA4-catB3 array by Etest method
Serratia marcescens [34] = assay: Antibacterial activity against Serratia marcescens isolate Sm211 harboring IncA/C plasmid and blaIMP-4-qacG2-aacA4-catB3 array by Etest method
Enterobacter cloacae [35] = assay: Antibacterial activity against Enterobacter cloacae isolate El216 harboring IncA/C plasmid and blaIMP-4-qacG2-aacA4-catB3 array by Etest method
Escherichia coli [36] = assay: Antibacterial activity against Escherichia coli isolate Ec221 harboring IncA/C plasmid and blaIMP-4-qacG2-aacA4-catB3 array by Etest method
Klebsiella oxytoca [37] = assay: Antibacterial activity against Klebsiella oxytoca isolate Ko238 harboring IncA/C plasmid and blaIMP-4-qacG2-aacA4-catB3 array by Etest method
Klebsiella pneumoniae [38] = assay: Antibacterial activity against Klebsiella pneumoniae isolate Kp204 harboring IncA/C plasmid and blaIMP-4-qacG2-aacA4-catB3 array by Etest method
Serratia marcescens [39] = assay: Antibacterial activity against Serratia marcescens isolate Sm265 harboring IncA/C plasmid and blaIMP-4-qacG2-aacA4-catB3 array by Etest method

With `C[C@@H](O)[C@H]1C(=O)N2C(C(=O)O)=C(SCCNC=N)C[C@H]12` [IMIPENEM ANHYDROUS] the MIC (Klebsiella pneumoniae [1]) was 2 µg/mL (≈ 6.68 µM), the MIC (Klebsiella pneumoniae [2]) was 2 µg/mL (≈ 6.68 µM) and the MIC (Citrobacter amalonaticus [3]) was at most 1 µg/mL. For the same molecule, the MIC (Enterobacter cloacae [4]) was 2 µg/mL (≈ 6.68 µM), the MIC (Citrobacter amalonaticus [5]) was 2 µg/mL (≈ 6.68 µM) and the MIC (Klebsiella pneumoniae [6]) was 2 µg/mL (≈ 6.68 µM). It also gave an MIC (Escherichia coli [7]) of at most 1 µg/mL, an MIC (Morganella morganii [8]) of 2 µg/mL (≈ 6.68 µM) and an MIC (Enterobacter cloacae [9]) of at most 1 µg/mL. It also gave an MIC (Klebsiella oxytoca [10]) of 4 µg/mL (≈ 13.4 µM), an MIC (Klebsiella oxytoca [11]) of at most 1 µg/mL and an MIC (Escherichia coli [12]) of 2 µg/mL (≈ 6.68 µM). The MIC (Citrobacter koseri) was at most 1 µg/mL, the MIC (Escherichia coli [13]) was 4 µg/mL (≈ 13.4 µM) and the MIC (Citrobacter youngae) was 4 µg/mL (≈ 13.4 µM). For the same molecule, the MIC (Klebsiella pneumoniae [14]) was over 32 µg/mL, the MIC (Klebsiella pneumoniae [15]) was 8 µg/mL (≈ 26.7 µM) and the MIC (Enterobacter cloacae [16]) was 3 µg/mL (≈ 10 µM). The MIC (Citrobacter amalonaticus [17]) was 2 µg/mL (≈ 6.68 µM), the MIC (Enterobacter cloacae [18]) was 8 µg/mL (≈ 26.7 µM) and the MIC (Serratia marcescens [19]) was 1.5 µg/mL (≈ 5.01 µM). It also gave an MIC (Klebsiella pneumoniae [20]) of 7 µg/mL (≈ 23.4 µM), an MIC (Citrobacter amalonaticus [21]) of 1.5 µg/mL (≈ 5.01 µM) and an MIC (Klebsiella pneumoniae [22]) of 0.5 µg/mL (≈ 1.67 µM). For the same molecule, the MIC (Morganella morganii [23]) was 4 µg/mL (≈ 13.4 µM), the MIC (Enterobacter cloacae [24]) was 1 µg/mL (≈ 3.34 µM) and the MIC (Klebsiella oxytoca [25]) was 4 µg/mL (≈ 13.4 µM). It also gave an MIC (Klebsiella oxytoca [26]) of 0.75 µg/mL (≈ 2.51 µM), an MIC (Citrobacter amalonaticus [27]) of 4 µg/mL (≈ 13.4 µM) and an MIC (Citrobacter freundii) of 4 µg/mL (≈ 13.4 µM). For the same molecule, the MIC (Morganella morganii [28]) was 8 µg/mL (≈ 26.7 µM), the MIC (Klebsiella pneumoniae [29]) was 8 µg/mL (≈ 26.7 µM) and the MIC (Serratia marcescens [30]) was 8 µg/mL (≈ 26.7 µM). It also gave an MIC (Klebsiella pneumoniae [31]) of 2 µg/mL (≈ 6.68 µM), an MIC (Escherichia coli [32]) of 4 µg/mL (≈ 13.4 µM) and an MIC (Klebsiella pneumoniae [33]) of 8 µg/mL (≈ 26.7 µM). For the same molecule, the MIC (Serratia marcescens [34]) was 4 µg/mL (≈ 13.4 µM), the MIC (Enterobacter cloacae [35]) was over 8 µg/mL and the MIC (Escherichia coli [36]) was 8 µg/mL (≈ 26.7 µM). For the same molecule, the MIC (Klebsiella oxytoca [37]) was 8 µg/mL (≈ 26.7 µM), the MIC (Klebsiella pneumoniae [38]) was 8 µg/mL (≈ 26.7 µM) and the MIC (Serratia marcescens [39]) was over 8 µg/mL.

From ChEMBL document CHEMBL1671859, “bla(IMP-4) in different genetic contexts in Enterobacteriaceae isolates from Australia” (2008)
